{"source": "patent US20230123654A1", "about": "(priority 2020, published 2023)", "key": {"Nav1.5 [1]": {"target": "T1, Nav1.5 (Homo sapiens, UniProt Q14524)", "T1 sequence (Q14524 whole entry)": "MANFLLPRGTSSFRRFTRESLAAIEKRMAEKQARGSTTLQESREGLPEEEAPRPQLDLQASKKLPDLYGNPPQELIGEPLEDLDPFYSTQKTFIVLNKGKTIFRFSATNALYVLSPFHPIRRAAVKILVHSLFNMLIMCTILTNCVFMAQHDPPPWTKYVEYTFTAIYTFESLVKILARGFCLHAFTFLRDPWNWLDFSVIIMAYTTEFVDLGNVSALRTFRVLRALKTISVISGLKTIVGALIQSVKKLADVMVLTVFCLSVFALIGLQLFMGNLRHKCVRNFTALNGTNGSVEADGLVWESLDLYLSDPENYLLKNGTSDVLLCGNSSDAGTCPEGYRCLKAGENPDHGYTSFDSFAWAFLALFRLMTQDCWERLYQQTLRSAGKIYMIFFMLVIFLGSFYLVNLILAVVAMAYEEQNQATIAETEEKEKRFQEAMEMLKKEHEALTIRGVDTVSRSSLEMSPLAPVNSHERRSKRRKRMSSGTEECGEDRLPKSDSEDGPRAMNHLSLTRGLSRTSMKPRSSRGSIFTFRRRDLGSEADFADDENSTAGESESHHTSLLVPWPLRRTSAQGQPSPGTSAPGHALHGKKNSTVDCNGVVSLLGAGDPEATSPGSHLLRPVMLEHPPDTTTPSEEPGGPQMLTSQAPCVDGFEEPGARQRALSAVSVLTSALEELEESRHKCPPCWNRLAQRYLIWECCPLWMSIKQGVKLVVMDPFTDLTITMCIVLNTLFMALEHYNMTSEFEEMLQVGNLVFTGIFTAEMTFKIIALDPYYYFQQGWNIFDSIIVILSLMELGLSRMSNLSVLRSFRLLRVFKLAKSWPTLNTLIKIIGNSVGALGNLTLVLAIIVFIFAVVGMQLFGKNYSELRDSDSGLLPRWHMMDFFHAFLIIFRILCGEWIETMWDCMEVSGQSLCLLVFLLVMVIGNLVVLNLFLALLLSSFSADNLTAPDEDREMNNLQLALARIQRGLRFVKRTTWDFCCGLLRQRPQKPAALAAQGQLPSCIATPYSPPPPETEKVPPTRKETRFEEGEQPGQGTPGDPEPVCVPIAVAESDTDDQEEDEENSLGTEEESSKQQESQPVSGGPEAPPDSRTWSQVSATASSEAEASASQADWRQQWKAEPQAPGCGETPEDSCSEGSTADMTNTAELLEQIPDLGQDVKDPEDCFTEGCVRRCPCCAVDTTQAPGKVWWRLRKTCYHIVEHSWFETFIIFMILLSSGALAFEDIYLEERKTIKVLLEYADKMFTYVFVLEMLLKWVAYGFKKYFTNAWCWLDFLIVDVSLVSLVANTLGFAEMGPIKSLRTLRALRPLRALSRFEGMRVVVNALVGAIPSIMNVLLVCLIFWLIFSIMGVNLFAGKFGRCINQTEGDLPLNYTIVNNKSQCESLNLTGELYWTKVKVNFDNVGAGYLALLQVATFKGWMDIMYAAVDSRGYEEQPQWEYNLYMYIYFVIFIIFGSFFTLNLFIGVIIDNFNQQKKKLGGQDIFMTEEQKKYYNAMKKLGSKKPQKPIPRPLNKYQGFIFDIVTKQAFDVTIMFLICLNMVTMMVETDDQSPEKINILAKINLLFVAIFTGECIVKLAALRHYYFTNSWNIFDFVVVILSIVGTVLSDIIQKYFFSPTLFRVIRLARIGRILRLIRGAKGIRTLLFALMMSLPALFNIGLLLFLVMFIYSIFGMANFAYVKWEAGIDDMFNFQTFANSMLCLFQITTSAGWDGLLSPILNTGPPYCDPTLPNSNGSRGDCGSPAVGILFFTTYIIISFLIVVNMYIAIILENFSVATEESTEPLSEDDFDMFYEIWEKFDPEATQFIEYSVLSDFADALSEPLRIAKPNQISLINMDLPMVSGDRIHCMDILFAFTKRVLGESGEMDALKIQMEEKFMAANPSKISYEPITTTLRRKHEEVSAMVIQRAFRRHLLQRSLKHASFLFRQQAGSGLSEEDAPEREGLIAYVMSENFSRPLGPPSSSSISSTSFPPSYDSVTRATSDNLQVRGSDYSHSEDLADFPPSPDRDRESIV"}, "[2]": {"test_system": "Nav1.5 transfected cells (CHO)"}, "Nav1.5 [3]": {"target": "T1, Nav1.5", "assay_type": "cell-based"}, "Nav1.4 [4]": {"target": "T2, Nav1.4 (Homo sapiens, UniProt P35499)", "T2 sequence (P35499 whole entry, looked up)": "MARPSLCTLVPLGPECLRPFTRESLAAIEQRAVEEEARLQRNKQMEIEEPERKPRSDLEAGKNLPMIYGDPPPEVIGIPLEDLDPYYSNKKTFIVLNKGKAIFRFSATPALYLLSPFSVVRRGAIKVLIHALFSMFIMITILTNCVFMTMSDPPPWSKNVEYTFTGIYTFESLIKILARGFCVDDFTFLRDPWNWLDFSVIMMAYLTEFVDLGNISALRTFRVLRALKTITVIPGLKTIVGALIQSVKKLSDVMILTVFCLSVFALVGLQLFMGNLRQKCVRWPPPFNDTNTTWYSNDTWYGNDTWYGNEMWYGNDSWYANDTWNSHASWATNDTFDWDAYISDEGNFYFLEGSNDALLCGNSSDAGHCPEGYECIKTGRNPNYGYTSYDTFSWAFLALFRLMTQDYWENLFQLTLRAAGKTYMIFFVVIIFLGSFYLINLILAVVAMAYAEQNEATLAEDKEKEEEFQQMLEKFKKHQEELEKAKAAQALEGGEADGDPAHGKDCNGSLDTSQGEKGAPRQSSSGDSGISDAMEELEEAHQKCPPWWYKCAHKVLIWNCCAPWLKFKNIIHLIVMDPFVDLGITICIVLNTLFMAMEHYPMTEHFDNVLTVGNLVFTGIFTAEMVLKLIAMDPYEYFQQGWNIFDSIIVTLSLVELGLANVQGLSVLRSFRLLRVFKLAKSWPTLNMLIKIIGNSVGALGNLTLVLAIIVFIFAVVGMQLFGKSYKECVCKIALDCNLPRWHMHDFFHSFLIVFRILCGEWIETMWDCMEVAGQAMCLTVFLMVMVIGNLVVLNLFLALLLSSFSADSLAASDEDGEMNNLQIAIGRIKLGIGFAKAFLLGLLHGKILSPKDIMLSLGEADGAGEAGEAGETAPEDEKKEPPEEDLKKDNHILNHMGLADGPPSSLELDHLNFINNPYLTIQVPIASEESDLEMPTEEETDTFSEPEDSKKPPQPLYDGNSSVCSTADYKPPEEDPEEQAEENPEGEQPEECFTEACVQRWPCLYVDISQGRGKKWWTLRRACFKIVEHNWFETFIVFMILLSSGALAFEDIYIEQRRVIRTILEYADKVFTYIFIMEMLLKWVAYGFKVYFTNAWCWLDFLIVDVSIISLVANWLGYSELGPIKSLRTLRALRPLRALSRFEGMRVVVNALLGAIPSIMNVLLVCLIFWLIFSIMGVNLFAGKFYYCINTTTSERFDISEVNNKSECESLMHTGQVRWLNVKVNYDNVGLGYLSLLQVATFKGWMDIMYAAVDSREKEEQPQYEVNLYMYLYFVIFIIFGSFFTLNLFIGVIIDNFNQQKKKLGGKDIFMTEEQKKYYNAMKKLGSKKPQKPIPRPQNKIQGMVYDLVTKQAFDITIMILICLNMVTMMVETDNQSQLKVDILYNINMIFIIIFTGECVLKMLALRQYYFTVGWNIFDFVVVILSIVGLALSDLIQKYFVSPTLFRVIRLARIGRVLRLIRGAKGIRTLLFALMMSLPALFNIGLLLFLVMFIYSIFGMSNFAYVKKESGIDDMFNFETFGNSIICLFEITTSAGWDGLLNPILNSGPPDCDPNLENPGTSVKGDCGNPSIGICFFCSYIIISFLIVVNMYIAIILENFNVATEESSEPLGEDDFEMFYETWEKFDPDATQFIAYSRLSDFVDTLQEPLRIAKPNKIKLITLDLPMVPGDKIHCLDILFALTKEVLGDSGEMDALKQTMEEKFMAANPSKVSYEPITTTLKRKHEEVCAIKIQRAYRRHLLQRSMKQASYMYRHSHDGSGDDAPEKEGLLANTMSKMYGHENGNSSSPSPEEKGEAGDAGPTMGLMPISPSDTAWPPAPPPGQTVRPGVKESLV", "assay_type": "cell-based"}, "Nav1.5 (SCN5A)": {"target": "Nav1.5 (SCN5A) (Homo sapiens, UniProt Q14524)", "assay_type": "cell-based"}, "Nav1.4 P1158S": {"target": "Nav1.4 P1158S (Homo sapiens, UniProt P35499, P1158S)", "sequence (P35499 whole entry P1158S, looked up)": "as the sequence (P35499 whole entry, looked up) above, with P1158S counted along it", "assay_type": "cell-based"}, "gramicidin-HEK cells": {"test_system": "gramicidin-HEK cells", "assay_type": "cell-based, human"}, "[5]": {"test_system": "Nav1.5 transfected cells (CHO)", "assay_type": "cell-based, Chinese hamster"}, "Nav1.5 [6]": {"target": "T1, Nav1.5", "assay_type": "cell-based", "remark": "listed apart in the source"}, "[7]": {"target": "Nav1.1 pore-mutant (F1763A-LA mutant) (Homo sapiens, UniProt P35498, F1774A)", "conditions": "cited from earlier work"}, "Nav": {"test_system": "Nav", "conditions": "cited from earlier work"}, "Nav1.4 [8]": {"target": "T2, Nav1.4", "assay_type": "cell-based", "remark": "listed apart in the source"}, "Nav1.4 F1586A": {"target": "Nav1.4 F1586A (Homo sapiens, UniProt P35499, F1586A)", "sequence (P35499 whole entry F1586A, looked up)": "as the sequence (P35499 whole entry, looked up) above, with F1586A counted along it", "assay_type": "cell-based"}, "Nav1.4 WWWW": {"target": "Nav1.4 WWWW (Homo sapiens, UniProt P35499, F432W/I1280W/I1583W/V787W)", "sequence (P35499 whole entry F432W/V787W/I1280W/I1583W, looked up)": "as the sequence (P35499 whole entry, looked up) above, with F432W, V787W, I1280W, I1583W counted along it", "assay_type": "cell-based"}, "[9]": {"test_system": "gramicidin containing DC22:1PC LUVs"}, "[10]": {"target": "Nav1.4 DIV-S6 peptide ([…]) (Homo sapiens, UniProt P35499)", "assay_type": "binding"}, "Nav1.5 [11]": {"target": "T1, Nav1.5", "assay_type": "cell-based", "remark": "listed apart in the source"}, "Nav1.5 [12]": {"target": "T1, Nav1.5", "assay_type": "cell-based", "remark": "listed apart in the source"}, "Nav1.4 [13]": {"target": "T2, Nav1.4", "conditions": "read-out: resting IC50 on Nav1.4; cited from earlier work"}, "Nav1.5 [14]": {"target": "T1, Nav1.5", "assay_type": "cell-based", "remark": "listed apart in the source"}, "TTX-sensitive channels": {"test_system": "TTX-sensitive channels", "conditions": "cited from earlier work"}}, "note": "Values joined by “and” are separate entries in the source; they are usually repeats but may differ in a detail not shown here. Equal values may be shown once. Read-outs that look alike come from different tables or passages of the source. Throughout, for contraction amplitude: test concentration or dose not given here."}
{"compound": "CC[C@H]1OC(=O)[C@H](C)[C@@H](O[C@H]2C[C@@](C)(OC)[C@@H](O)[C@H](C)O2)[C@H](C)[C@@H](O[C@@H]2O[C@H](C)C[C@H](N(C)C)[C@H]2O)[C@](C)(O)C[C@@H](C)CN(C)[C@H](C)[C@@H](O)[C@]1(C)O", "note": "[Azithromycin]", "values": [{"measurement": "late sodium current compared to control", "setting": "Nav1.5 [1]", "value": "an increase in late sodium current"}]}
{"compound": "C=C(C)[C@@H]1CCC(C)=C[C@H]1c1c(O)cc(CCCCC)cc1O", "note": "[CANNABIDIOL, 2-[(1R,6R)-3-Methyl-6-(1-methylethenyl)-2-cyclohexen-1-yl]-5-pentyl-1,3-benzenediol]", "values": [{"measurement": "effect on reduction in cell viability at high glucose", "setting": "[2]", "value": "attenuated the reduction in cell viability"}, {"measurement": "Percentage of persistent INa", "setting": "Nav1.5 [3]", "value": "0.93 ± 0.05% and 1.04 ± 0.11% and 0.88 ± 0.07%"}, {"measurement": "Mean block of INa", "setting": "Nav1.4 [4]", "value": "42.4±6.4% and ~45%"}, {"measurement": "activation and steady-state inactivation curves", "setting": "Nav1.5 (SCN5A)", "value": "rescues the activation and steady-state inactivation curves"}, {"measurement": "late sodium current", "setting": "Nav1.5 (SCN5A)", "value": "indistinguishable from control"}, {"measurement": "SSFI V1/2", "setting": "Nav1.4 P1158S; pH6.4", "value": "−81.7±2.3", "unit": "mV"}, {"measurement": "SSFI z", "setting": "Nav1.4 P1158S; pH6.4", "value": "2.7±0.3"}, {"measurement": "activation V1/2", "setting": "Nav1.4 P1158S; pH6.4", "value": "−21.1±3.3", "unit": "mV"}, {"measurement": "activation z", "setting": "Nav1.4 P1158S; pH6.4", "value": "2.5±0.2"}, {"measurement": "persistent currents, Percentage", "setting": "Nav1.4 P1158S; pH6.4", "value": "5.4±1.2", "unit": "%"}, {"measurement": "SSFI V1/2", "setting": "Nav1.4 P1158S; pH7.4", "value": "−83.0±2.6", "unit": "mV"}, {"measurement": "SSFI z", "setting": "Nav1.4 P1158S; pH7.4", "value": "3.0±0.3"}, {"measurement": "activation V1/2", "setting": "Nav1.4 P1158S; pH7.4", "value": "−32.7±3.6", "unit": "mV"}, {"measurement": "activation z", "setting": "Nav1.4 P1158S; pH7.4", "value": "2.9±0.2"}, {"measurement": "persistent currents, Percentage", "setting": "Nav1.4 P1158S; pH7.4", "value": "1.0±0.2", "unit": "%"}, {"measurement": "gramicidin currents", "setting": "gramicidin-HEK cells", "value": "slightly altered gramicidin currents"}, {"measurement": "ROS levels at high glucose", "setting": "[5]", "value": "complete reduction of ROS levels"}, {"measurement": "GV − z (slope)", "setting": "Nav1.5 [6]", "value": "4.7 ± 0.9 and 3.7 ± 0.6 and 2.8 ± 0.2 and 3.1 ± 0.2"}, {"measurement": "drop in potency in pore-mutant", "setting": "[7]", "value": "~2.5", "unit": "fold"}, {"measurement": "state-dependence in Nav inhibition", "setting": "Nav", "value": "approximately 10 fold"}, {"measurement": "IC50", "setting": "Nav; read-out: IC50, inactivated Nav", "value": "~1", "unit": "µM"}, {"measurement": "IC50", "setting": "Nav; read-out: IC50, resting Nav", "value": "~10", "unit": "µM"}, {"measurement": "Azithromycin-induced late sodium current", "setting": "Nav1.5 [1]", "value": "the late current was reduced"}, {"measurement": "SSFI V1/2", "setting": "Nav1.4 [8]", "value": "−72.7±3.0", "unit": "mV"}, {"measurement": "SSFI z", "setting": "Nav1.4 [8]", "value": "−2.8±0.4"}, {"measurement": "activation V1/2", "setting": "Nav1.4 [8]", "value": "−14.3±4.2", "unit": "mV"}, {"measurement": "activation z", "setting": "Nav1.4 [8]", "value": "2.8±0.3"}, {"measurement": "contraction amplitude", "setting": "rat diaphragm muscle", "value": "~60 % of control"}, {"measurement": "Mean block of INa", "setting": "Nav1.4 F1586A", "value": "25.3±4.8% and ~25%"}, {"measurement": "difference between inhibition of WT vs. F1586A", "setting": "Nav1.4 F1586A", "value": 1.5, "unit": "fold"}, {"measurement": "Mean block of INa", "setting": "Nav1.4 WWWW", "value": "6.4±1.3", "unit": "%"}, {"measurement": "gramicidin signal (fluorescence quench)", "setting": "[9]", "value": "alters the gramicidin signal"}, {"measurement": "peak heat of titration", "setting": "[10]", "value": "1022.2 ± 160.6", "unit": "kcal/mol"}]}
{"compound": "Nc1ncnc2c1nc(Sc1ccc(Cl)cc1)n2[C@@H]1O[C@@H]2COP(=O)([O-])O[C@H]2[C@H]1O.[Na+]", "note": "[CPT-cAMP, 8-(4-chlorophenylthio) adenosine-3′,5′-cyclic monophosphate]", "values": [{"measurement": "Percentage of persistent INa", "setting": "Nav1.5 [3]", "value": "2.20 ± 0.08", "unit": "%"}, {"measurement": "SSFI V1/2", "setting": "Nav1.5 [11]", "value": "−79.4 ± 1.1", "unit": "mV"}, {"measurement": "SSFI − z (slope)", "setting": "Nav1.5 [11]", "value": "−3.0 ± 0.1"}, {"measurement": "GV − V1/2 (Steady state activation)", "setting": "Nav1.5 [12]", "value": "−25.2 ± 0.5", "unit": "mV"}, {"measurement": "GV − z (slope)", "setting": "Nav1.5 [12]", "value": "2.5 ± 0.1"}]}
{"compound": "C[C@]12CC[C@@H]3c4ccc(O)cc4CC[C@H]3[C@@H]1CC[C@@H]2O", "note": "[E2, 17β-Estradiol]", "values": [{"measurement": "Percentage of persistent INa", "setting": "Nav1.5 [3]", "value": "0.85 ± 0.06% and 0.91 ± 0.06% and 1.92 ± 0.09% and 0.89 ± 0.06% and 1.73 ± 0.03% and 0.95 ± 0.09% and 0.90 ± 0.11%"}, {"measurement": "GV − z (slope)", "setting": "Nav1.5 [12]", "value": "3.1 ± 0.1 and 3.0 ± 0.1 and 2.4 ± 0.1 and 3.5 ± 0.1 and 2.8 ± 0.1 and 3.6 ± 0.1 and 3.4 ± 0.2"}]}
{"compound": "CCN(CC)CC(=O)Nc1c(C)cccc1C", "note": "[Lidocaine, lidocaine]", "values": [{"measurement": "Mean block of INa", "setting": "Nav1.4 [4]", "value": "60.6±2.3% and ~60%"}, {"measurement": "IC50", "setting": "Nav1.4 [13]", "value": 1100, "unit": "µM"}, {"measurement": "Mean block of INa", "setting": "Nav1.4 F1586A", "value": "24.6±9.3% and ~20%"}, {"measurement": "difference between inhibition of WT vs. F1586A", "setting": "Nav1.4 F1586A", "value": 3, "unit": "fold"}, {"measurement": "Mean block of INa", "setting": "Nav1.4 WWWW", "value": "53.6±11.7", "unit": "%"}, {"measurement": "peak heat of titration", "setting": "[10]", "value": "968.0 ± 23.4", "unit": "kcal/mol"}]}
{"compound": "OC[C@@H](O)[C@@H](O)[C@H](O)[C@H](O)CO", "note": "[Mannitol, mannitol]", "values": [{"measurement": "SSF[I] − V1/2 (Steady State Fast Inactivation)", "setting": "Nav1.5 [14]", "value": "−93.6 ± 2.3", "unit": "mV"}, {"measurement": "SSF[I] − z (slope)", "setting": "Nav1.5 [14]", "value": "−2.1 ± 0.3"}, {"measurement": "cell viability, agent alone", "setting": "[2]", "value": "no significant effect on the cell viability"}, {"measurement": "GV − V1/2 (Steady state activation)", "setting": "Nav1.5 [6]", "value": "−39.2 ± 1.6", "unit": "mV"}, {"measurement": "GV − z (slope)", "setting": "Nav1.5 [6]", "value": "5.1 ± 0.8"}]}
{"compound": "CCCCCCCCCCCCCC(=O)O[C@@H]1[C@@H](C)[C@@]2(O)[C@@H](C=C(CO)C[C@]3(O)C(=O)C(C)=C[C@@H]23)[C@@H]2C(C)(C)[C@]12OC(C)=O", "note": "[PMA]", "values": [{"measurement": "Percentage of persistent INa", "setting": "Nav1.5 [3]", "value": "2.18 ± 0.06", "unit": "%"}, {"measurement": "SSFI V1/2", "setting": "Nav1.5 [11]", "value": "−76.4 ± 1.7", "unit": "mV"}, {"measurement": "SSFI − z (slope)", "setting": "Nav1.5 [11]", "value": "−2.9 ± 0.2"}, {"measurement": "GV − V1/2 (Steady state activation)", "setting": "Nav1.5 [12]", "value": "−22.6 ± 1.6", "unit": "mV"}, {"measurement": "GV − z (slope)", "setting": "Nav1.5 [12]", "value": "2.5 ± 0.1"}]}
{"compound": "NC1=N[C@H](O)[C@H]2[C@H]3O[C@]4(O)O[C@@H]([C@@H](O)[C@@]2(N1)[C@@H]4O)[C@]3(O)CO", "note": "[TTX, tetrodotoxin]", "values": [{"measurement": "contraction amplitude", "setting": "rat diaphragm muscle", "value": "~20 % of control"}, {"measurement": "IC50", "setting": "TTX-sensitive channels", "value": "0.01 to 0.03", "unit": "µM"}]}
{"compound": "CC1(C)CC(O)CC(C)(C)N1[O]", "note": "[Tempol]", "values": [{"measurement": "effect on reduction in cell viability at high glucose", "setting": "[2]", "value": "showed similar results to CANNABIDIOL"}, {"measurement": "ROS levels at high glucose", "setting": "[5]", "value": "complete reduction of ROS levels"}, {"measurement": "GV − z (slope)", "setting": "Nav1.5 [6]", "value": "3.9 ± 0.6 and 4.4 ± 0.5 and 2.6 ± 0.2 and 4.0 ± 0.6 and 2.2 ± 0.1 and 4.3 ± 1.0 and 3.4 ± 0.3"}]}
{"compound": "O=C(NCC1CCCCN1)c1cc(OCC(F)(F)F)ccc1OCC(F)(F)F", "note": "(centres unmarked) [flecainide]", "values": [{"measurement": "Mean block of INa", "setting": "Nav1.4 [4]", "value": "64.6±6.0", "unit": "%"}, {"measurement": "Mean block of INa", "setting": "Nav1.4 WWWW", "value": "76.4±11.3", "unit": "%"}]}
{"compound": "Triton X100 [TX100]", "values": [{"measurement": "gramicidin currents", "setting": "gramicidin-HEK cells", "value": "altered the cationic gramicidin currents across all potentials"}]}
